Measured values from article PMC9851200, “Multiparameter phenotypic screening for endogenous TFEB and TFE3 translocation identifies novel chemical series modulating lysosome function” (Autophagy, 2022).

Tests used:
Format in all cases: binding
[1] = target: kinases (KINOMEscan panel) (Homo sapiens, UniProt Q16539)
[2] = target: kinases (KINOMEscan panel) (Homo sapiens, UniProt P68400); conditions: CSNK2A1; NEW KINOMEscan
[3] = target: T1, kinases (KINOMEscan panel) (Homo sapiens, UniProt P51956); conditions: kinase NEK3; NEW KINOMEscan
T1 sequence (P51956 1-506): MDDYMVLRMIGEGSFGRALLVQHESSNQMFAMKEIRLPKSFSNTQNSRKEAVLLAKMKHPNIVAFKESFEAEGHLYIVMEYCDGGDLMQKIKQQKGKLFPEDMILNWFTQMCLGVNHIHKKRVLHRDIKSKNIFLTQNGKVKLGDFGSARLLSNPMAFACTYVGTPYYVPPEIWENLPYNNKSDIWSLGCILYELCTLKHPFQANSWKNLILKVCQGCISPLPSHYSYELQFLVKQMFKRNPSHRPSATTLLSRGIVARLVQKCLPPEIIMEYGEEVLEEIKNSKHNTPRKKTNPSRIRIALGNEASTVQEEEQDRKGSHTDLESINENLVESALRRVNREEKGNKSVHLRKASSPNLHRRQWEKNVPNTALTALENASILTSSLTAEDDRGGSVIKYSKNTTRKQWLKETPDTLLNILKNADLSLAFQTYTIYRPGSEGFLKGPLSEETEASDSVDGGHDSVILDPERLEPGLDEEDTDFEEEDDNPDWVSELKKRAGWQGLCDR

[4] = target: T2, kinases (KINOMEscan panel) (Homo sapiens, UniProt Q9Y616); conditions: IRAK3; NEW KINOMEscan
T2 sequence (Q9Y616 1-596): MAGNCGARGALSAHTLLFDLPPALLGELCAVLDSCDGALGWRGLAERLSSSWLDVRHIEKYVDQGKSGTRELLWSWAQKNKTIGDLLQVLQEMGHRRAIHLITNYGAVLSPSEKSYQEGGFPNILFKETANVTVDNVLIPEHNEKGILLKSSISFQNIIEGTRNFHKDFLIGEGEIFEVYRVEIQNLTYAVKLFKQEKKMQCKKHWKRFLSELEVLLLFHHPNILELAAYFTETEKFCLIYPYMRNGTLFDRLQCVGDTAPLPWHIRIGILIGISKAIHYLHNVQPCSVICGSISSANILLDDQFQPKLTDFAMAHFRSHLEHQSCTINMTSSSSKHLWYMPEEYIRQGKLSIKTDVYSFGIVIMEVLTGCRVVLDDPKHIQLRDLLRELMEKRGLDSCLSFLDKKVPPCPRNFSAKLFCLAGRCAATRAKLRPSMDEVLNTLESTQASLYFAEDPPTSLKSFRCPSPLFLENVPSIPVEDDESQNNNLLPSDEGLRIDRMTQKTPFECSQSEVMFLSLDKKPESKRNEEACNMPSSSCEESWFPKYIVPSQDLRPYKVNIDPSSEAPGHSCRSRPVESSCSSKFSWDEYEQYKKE

[5] = target: kinases (KINOMEscan panel) (Homo sapiens, UniProt Q07912); conditions: TNK2; NEW KINOMEscan
kinases (KINOMEscan panel) (Homo sapiens, UniProt Q07912), sequence (Q07912 whole entry): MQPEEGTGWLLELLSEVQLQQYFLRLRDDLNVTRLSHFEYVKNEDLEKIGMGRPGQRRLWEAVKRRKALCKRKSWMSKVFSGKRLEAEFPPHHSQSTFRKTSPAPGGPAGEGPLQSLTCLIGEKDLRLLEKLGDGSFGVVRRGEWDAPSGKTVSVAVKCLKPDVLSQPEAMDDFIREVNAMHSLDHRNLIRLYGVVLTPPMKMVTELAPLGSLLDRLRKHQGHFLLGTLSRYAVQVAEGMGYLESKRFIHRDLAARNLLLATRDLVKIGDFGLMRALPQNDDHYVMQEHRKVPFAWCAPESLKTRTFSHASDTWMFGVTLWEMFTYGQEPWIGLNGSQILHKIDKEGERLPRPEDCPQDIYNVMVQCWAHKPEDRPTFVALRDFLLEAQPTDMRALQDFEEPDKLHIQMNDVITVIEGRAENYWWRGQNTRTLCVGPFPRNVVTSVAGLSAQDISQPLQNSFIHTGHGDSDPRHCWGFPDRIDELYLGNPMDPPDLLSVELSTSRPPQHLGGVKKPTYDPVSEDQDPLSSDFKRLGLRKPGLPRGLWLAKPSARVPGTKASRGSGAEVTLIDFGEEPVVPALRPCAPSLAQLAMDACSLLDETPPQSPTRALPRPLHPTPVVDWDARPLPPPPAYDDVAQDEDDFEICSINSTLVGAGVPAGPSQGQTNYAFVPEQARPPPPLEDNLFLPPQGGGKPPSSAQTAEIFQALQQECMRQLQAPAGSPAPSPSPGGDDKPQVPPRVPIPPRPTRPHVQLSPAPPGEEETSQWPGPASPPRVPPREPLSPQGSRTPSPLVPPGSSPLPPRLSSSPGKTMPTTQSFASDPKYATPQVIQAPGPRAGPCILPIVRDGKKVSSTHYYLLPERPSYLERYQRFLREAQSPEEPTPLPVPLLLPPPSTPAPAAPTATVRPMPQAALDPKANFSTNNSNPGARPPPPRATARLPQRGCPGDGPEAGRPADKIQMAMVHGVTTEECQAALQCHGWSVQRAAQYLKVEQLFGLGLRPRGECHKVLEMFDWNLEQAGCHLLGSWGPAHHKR

[6] = target: kinases (KINOMEscan panel) (Homo sapiens, UniProt Q00526); conditions: CDK3; NEW KINOMEscan
kinases (KINOMEscan panel) (Homo sapiens, UniProt Q00526), sequence (Q00526 whole entry): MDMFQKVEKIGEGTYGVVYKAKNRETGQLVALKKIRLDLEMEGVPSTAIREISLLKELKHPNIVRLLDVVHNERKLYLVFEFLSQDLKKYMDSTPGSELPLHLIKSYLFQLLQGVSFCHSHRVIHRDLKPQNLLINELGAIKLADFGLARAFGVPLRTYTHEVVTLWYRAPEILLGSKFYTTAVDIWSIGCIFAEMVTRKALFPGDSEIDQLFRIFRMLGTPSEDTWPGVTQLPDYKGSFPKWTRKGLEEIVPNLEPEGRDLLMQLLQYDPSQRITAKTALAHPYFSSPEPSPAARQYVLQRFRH

[7] = target: kinases (KINOMEscan panel) (Homo sapiens, UniProt O43683); conditions: kinase BUB1; NEW KINOMEscan
kinases (KINOMEscan panel) (Homo sapiens, UniProt O43683), sequence (O43683 whole entry): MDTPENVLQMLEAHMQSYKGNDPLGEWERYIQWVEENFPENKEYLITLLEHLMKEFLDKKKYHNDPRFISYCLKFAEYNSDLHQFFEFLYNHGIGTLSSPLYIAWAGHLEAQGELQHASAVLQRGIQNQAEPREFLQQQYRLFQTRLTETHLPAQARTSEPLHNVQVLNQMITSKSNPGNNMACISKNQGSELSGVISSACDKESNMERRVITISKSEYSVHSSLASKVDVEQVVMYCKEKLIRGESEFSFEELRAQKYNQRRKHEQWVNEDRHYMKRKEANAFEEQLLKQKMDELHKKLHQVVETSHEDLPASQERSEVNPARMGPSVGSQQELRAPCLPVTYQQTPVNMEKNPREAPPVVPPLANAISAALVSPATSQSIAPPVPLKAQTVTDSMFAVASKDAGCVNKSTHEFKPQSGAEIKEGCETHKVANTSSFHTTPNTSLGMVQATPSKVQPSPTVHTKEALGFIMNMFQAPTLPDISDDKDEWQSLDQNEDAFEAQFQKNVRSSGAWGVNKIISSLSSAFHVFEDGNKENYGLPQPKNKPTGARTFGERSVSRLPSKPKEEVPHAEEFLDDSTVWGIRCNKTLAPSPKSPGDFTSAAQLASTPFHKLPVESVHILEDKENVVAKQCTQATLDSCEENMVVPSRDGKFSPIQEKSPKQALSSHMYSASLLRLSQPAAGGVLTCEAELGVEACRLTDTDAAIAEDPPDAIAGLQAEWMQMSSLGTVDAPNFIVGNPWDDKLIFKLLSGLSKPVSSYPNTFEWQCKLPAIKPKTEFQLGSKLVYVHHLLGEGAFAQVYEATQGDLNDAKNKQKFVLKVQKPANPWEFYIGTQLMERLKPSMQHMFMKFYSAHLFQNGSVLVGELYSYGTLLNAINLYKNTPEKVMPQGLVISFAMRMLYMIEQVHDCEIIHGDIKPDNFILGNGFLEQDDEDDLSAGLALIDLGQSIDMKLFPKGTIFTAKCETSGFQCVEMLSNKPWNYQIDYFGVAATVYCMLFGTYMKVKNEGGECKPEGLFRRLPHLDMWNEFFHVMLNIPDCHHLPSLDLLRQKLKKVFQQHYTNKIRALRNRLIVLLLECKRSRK

[8] = target: T3, kinases (KINOMEscan panel) (Homo sapiens, UniProt P15735); conditions: kinase PHKG2; NEW KINOMEscan
T3 sequence (P15735 1-406): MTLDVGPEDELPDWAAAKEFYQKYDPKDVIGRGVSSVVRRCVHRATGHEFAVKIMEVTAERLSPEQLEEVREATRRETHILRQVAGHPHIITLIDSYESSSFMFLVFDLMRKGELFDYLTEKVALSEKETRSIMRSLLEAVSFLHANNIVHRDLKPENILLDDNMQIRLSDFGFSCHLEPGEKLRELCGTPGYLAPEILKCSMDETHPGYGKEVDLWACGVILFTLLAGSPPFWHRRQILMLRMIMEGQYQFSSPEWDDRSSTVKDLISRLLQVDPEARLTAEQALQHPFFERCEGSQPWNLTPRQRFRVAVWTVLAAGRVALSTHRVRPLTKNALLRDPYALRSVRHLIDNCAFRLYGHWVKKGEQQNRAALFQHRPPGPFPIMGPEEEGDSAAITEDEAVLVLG

[9] = target: kinases (KINOMEscan panel) (Homo sapiens, UniProt P16591); conditions: FER; NEW KINOMEscan
kinases (KINOMEscan panel) (Homo sapiens, UniProt P16591), sequence (P16591 whole entry): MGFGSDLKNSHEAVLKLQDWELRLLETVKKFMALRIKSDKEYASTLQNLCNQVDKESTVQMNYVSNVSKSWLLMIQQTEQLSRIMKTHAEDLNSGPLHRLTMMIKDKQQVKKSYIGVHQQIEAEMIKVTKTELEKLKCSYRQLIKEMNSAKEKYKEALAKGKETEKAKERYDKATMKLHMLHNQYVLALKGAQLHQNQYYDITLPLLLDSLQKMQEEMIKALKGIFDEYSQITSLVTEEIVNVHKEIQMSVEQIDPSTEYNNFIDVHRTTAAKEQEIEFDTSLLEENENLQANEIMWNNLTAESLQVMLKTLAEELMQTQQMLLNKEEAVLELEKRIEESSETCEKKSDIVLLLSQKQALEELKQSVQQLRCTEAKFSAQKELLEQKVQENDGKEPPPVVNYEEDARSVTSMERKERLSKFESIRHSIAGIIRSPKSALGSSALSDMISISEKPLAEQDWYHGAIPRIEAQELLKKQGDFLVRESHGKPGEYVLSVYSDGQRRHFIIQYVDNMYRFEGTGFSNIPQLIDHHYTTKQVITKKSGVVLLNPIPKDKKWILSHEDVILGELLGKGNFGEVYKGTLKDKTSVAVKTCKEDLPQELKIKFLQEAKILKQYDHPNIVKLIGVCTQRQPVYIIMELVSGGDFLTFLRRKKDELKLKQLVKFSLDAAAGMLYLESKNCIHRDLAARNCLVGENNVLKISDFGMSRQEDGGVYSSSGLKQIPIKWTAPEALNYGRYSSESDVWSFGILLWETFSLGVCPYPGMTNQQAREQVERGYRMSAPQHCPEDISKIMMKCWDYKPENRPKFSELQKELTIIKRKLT

[10] = target: kinases (KINOMEscan panel) (Homo sapiens, UniProt Q16513); conditions: kinase PKN2; NEW KINOMEscan
kinases (KINOMEscan panel) (Homo sapiens, UniProt Q16513), sequence (Q16513 whole entry): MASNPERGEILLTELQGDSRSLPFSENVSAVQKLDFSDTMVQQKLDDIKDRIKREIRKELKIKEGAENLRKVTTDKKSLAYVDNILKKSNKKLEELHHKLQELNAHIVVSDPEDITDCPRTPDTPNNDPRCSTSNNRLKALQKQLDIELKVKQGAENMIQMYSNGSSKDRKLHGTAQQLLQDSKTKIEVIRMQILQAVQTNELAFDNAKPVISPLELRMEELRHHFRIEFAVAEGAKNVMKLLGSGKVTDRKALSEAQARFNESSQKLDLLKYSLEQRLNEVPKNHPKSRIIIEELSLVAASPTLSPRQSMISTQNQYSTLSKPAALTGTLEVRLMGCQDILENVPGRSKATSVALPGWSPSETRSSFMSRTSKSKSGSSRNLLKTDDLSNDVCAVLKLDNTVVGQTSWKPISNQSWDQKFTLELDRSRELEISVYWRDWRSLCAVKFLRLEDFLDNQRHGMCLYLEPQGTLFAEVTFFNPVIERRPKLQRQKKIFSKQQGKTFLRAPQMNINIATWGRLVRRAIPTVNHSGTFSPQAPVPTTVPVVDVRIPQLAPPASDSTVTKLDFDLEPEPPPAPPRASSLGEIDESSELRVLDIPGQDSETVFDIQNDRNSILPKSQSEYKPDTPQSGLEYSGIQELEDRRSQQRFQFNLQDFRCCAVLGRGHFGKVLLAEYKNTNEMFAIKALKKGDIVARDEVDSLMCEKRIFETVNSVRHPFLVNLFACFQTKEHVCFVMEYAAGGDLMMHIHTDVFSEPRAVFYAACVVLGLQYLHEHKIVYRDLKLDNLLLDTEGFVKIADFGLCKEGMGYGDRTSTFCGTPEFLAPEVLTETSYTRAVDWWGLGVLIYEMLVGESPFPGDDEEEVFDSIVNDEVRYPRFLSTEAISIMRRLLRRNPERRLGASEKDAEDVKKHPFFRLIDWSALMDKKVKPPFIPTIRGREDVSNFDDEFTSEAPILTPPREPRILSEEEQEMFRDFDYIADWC

kinases (KINOMEscan panel) (Homo sapiens, UniProt Q16539), sequence (Q16539 whole entry): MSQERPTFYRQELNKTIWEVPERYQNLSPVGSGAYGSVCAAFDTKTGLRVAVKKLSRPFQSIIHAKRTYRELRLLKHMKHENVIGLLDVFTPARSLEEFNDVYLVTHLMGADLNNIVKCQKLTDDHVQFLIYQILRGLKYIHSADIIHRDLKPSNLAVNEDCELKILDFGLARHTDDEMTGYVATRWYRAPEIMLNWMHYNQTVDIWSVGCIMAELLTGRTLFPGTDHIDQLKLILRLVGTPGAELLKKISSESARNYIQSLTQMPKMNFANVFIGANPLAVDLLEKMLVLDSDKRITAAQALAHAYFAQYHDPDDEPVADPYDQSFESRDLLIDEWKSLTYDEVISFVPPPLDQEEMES
kinases (KINOMEscan panel) (Homo sapiens, UniProt P68400), sequence (P68400 whole entry): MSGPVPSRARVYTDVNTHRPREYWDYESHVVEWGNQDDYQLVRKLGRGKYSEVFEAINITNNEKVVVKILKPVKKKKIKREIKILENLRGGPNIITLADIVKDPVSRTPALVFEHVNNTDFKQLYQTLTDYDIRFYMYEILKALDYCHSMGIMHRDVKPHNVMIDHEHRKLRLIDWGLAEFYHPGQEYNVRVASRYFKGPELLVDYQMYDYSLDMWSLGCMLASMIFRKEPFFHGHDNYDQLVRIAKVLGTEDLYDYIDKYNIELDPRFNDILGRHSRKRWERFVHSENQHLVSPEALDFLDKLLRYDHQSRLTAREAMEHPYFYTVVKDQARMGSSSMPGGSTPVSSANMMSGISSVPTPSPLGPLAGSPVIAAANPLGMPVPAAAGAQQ

| Compound | KINOMEscan MAPK14/p38-alpha [1] | KINOMEscan CSNK2A1 [2] | KINOMEscan NEK3 [3] | KINOMEscan IRAK3 [4] | KINOMEscan TNK2 [5] | KINOMEscan CDK3 [6] | KINOMEscan BUB1 [7] | KINOMEscan PHKG2 [8] | KINOMEscan FER [9] | KINOMEscan PKN2 [10] |
| --- | --- | --- | --- | --- | --- | --- | --- | --- | --- | --- |
| Cc1cccc(-c2nc(Nc3ccc4nn(C)cc4c3)c3ccccc3n2)n1 [NK167] | 5 | 0 | 46 | 0 | 0 | 0 | 0 | 0 | 0 | 0 |
| Cc1cccc(-c2nc(N(C)c3ccc4ncsc4c3)c3ccccc3n2)n1 [NK-161] | 8 | 19 | 33 | 7 | 0 | 0 | 0 | 0 | 0 | 0 |
